# Measurements published in BigSolDB 2.1.
compound,measurement,setting,value
COc1ccc(OC)c(N)c1,solubility (mole fraction),"in 1-methoxy-2-propanol, 276.6 K",0.0204
same,solubility (mole fraction),"in 1-methoxy-2-propanol, 279.7 K",0.0255
same,solubility (mole fraction),"in 1-methoxy-2-propanol, 282.8 K",0.0306
same,solubility (mole fraction),"in 1-methoxy-2-propanol, 285.9 K",0.0382
same,solubility (mole fraction),"in 1-methoxy-2-propanol, 289 K",0.0512
same,solubility (mole fraction),"in 1-methoxy-2-propanol, 292.1 K",0.0675
same,solubility (mole fraction),"in 1-methoxy-2-propanol, 295.2 K",0.0867
same,solubility (mole fraction),"in 1-methoxy-2-propanol, 298.3 K",0.11
same,solubility (mole fraction),"in 1-methoxy-2-propanol, 301.6 K",0.14
same,solubility (mole fraction),"in 1-methoxy-2-propanol, 305.1 K",0.174
same,solubility (mole fraction),"in 1-methoxy-2-propanol, 310.4 K",0.211
same,solubility (mole fraction),"in 1-methoxy-2-propanol, 314.7 K",0.239
same,solubility (mole fraction),"in 1-methoxy-2-propanol, 318.8 K",0.281
same,solubility (mole fraction),"in 1-methoxy-2-propanol, 322.9 K",0.323
same,solubility (mole fraction),"in 2-ethoxyethanol, 276.7 K",0.0186
same,solubility (mole fraction),"in 2-ethoxyethanol, 279.8 K",0.0238
same,solubility (mole fraction),"in 2-ethoxyethanol, 282.9 K",0.029
same,solubility (mole fraction),"in 2-ethoxyethanol, 286 K",0.0369
same,solubility (mole fraction),"in 2-ethoxyethanol, 289.1 K",0.0481
same,solubility (mole fraction),"in 2-ethoxyethanol, 292.2 K",0.0635
same,solubility (mole fraction),"in 2-ethoxyethanol, 295.3 K",0.0834
same,solubility (mole fraction),"in 2-ethoxyethanol, 298.4 K",0.106
same,solubility (mole fraction),"in 2-ethoxyethanol, 301.6 K",0.135
same,solubility (mole fraction),"in 2-ethoxyethanol, 304.7 K",0.165
same,solubility (mole fraction),"in 2-ethoxyethanol, 308.9 K",0.199
same,solubility (mole fraction),"in 2-ethoxyethanol, 313 K",0.231
same,solubility (mole fraction),"in 2-ethoxyethanol, 317.1 K",0.262
same,solubility (mole fraction),"in 2-ethoxyethanol, 321.4 K",0.311
same,solubility (mole fraction),"in 2-ethoxyethanol, 325.5 K",0.371
same,solubility (mole fraction),"in 2-methoxyethanol, 276.4 K",0.0331
same,solubility (mole fraction),"in 2-methoxyethanol, 280.5 K",0.046
same,solubility (mole fraction),"in 2-methoxyethanol, 284.6 K",0.0617
same,solubility (mole fraction),"in 2-methoxyethanol, 288.7 K",0.0819
same,solubility (mole fraction),"in 2-methoxyethanol, 292.8 K",0.102
same,solubility (mole fraction),"in 2-methoxyethanol, 296.9 K",0.123
same,solubility (mole fraction),"in 2-methoxyethanol, 301 K",0.15
same,solubility (mole fraction),"in 2-methoxyethanol, 305.1 K",0.185
same,solubility (mole fraction),"in 2-methoxyethanol, 309.2 K",0.217
same,solubility (mole fraction),"in 2-methoxyethanol, 313.4 K",0.254
same,solubility (mole fraction),"in 2-methoxyethanol, 316.6 K",0.292
same,solubility (mole fraction),"in diethylene glycol, 276.7 K",0.00015
same,solubility (mole fraction),"in diethylene glycol, 280.9 K",0.000379
same,solubility (mole fraction),"in diethylene glycol, 285 K",0.000611
same,solubility (mole fraction),"in diethylene glycol, 289.1 K",0.000885
same,solubility (mole fraction),"in diethylene glycol, 293.2 K",0.00119
same,solubility (mole fraction),"in diethylene glycol, 297.3 K",0.00165
same,solubility (mole fraction),"in diethylene glycol, 301.4 K",0.00325
same,solubility (mole fraction),"in diethylene glycol, 303.5 K",0.00532
same,solubility (mole fraction),"in diethylene glycol, 305.6 K",0.00751
same,solubility (mole fraction),"in diethylene glycol, 307.7 K",0.015
same,solubility (mole fraction),"in diethylene glycol, 309.8 K",0.0248
same,solubility (mole fraction),"in diethylene glycol, 311.9 K",0.0458
same,solubility (mole fraction),"in diethylene glycol, 314 K",0.0704
same,solubility (mole fraction),"in diethylene glycol, 316.1 K",0.104
same,solubility (mole fraction),"in diethylene glycol, 318.2 K",0.14
same,solubility (mole fraction),"in diethylene glycol, 320.7 K",0.177
same,solubility (mole fraction),"in diethylene glycol, 323.7 K",0.216
COc1cc(Cl)c(OC)cc1N,solubility (mole fraction),"in 1-methoxy-2-propanol, 277.4 K",0.0208
same,solubility (mole fraction),"in 1-methoxy-2-propanol, 281.6 K",0.0267
same,solubility (mole fraction),"in 1-methoxy-2-propanol, 289.4 K",0.0327
same,solubility (mole fraction),"in 1-methoxy-2-propanol, 294.3 K",0.0369
same,solubility (mole fraction),"in 1-methoxy-2-propanol, 298.5 K",0.045
same,solubility (mole fraction),"in 1-methoxy-2-propanol, 302.6 K",0.0536
same,solubility (mole fraction),"in 1-methoxy-2-propanol, 307.6 K",0.0649
same,solubility (mole fraction),"in 1-methoxy-2-propanol, 312.6 K",0.0772
same,solubility (mole fraction),"in 1-methoxy-2-propanol, 316.8 K",0.089
same,solubility (mole fraction),"in 1-methoxy-2-propanol, 320.9 K",0.101
same,solubility (mole fraction),"in 1-methoxy-2-propanol, 326.3 K",0.125
same,solubility (mole fraction),"in 2-ethoxyethanol, 278.6 K",0.0282
same,solubility (mole fraction),"in 2-ethoxyethanol, 283.5 K",0.0322
same,solubility (mole fraction),"in 2-ethoxyethanol, 287.6 K",0.0361
same,solubility (mole fraction),"in 2-ethoxyethanol, 291.7 K",0.04
same,solubility (mole fraction),"in 2-ethoxyethanol, 295.8 K",0.0453
same,solubility (mole fraction),"in 2-ethoxyethanol, 300.3 K",0.0559
same,solubility (mole fraction),"in 2-ethoxyethanol, 306.7 K",0.0672
same,solubility (mole fraction),"in 2-ethoxyethanol, 310.9 K",0.0785
same,solubility (mole fraction),"in 2-ethoxyethanol, 315 K",0.0894
same,solubility (mole fraction),"in 2-ethoxyethanol, 319.7 K",0.1
same,solubility (mole fraction),"in 2-ethoxyethanol, 323.9 K",0.117
same,solubility (mole fraction),"in 2-ethoxyethanol, 328 K",0.138
same,solubility (mole fraction),"in 2-methoxyethanol, 277.2 K",0.0282
same,solubility (mole fraction),"in 2-methoxyethanol, 281.1 K",0.034
same,solubility (mole fraction),"in 2-methoxyethanol, 285.5 K",0.0427
same,solubility (mole fraction),"in 2-methoxyethanol, 291.2 K",0.0497
same,solubility (mole fraction),"in 2-methoxyethanol, 295.3 K",0.0549
same,solubility (mole fraction),"in 2-methoxyethanol, 299.4 K",0.06
same,solubility (mole fraction),"in 2-methoxyethanol, 303.6 K",0.0665
same,solubility (mole fraction),"in 2-methoxyethanol, 307.7 K",0.0768
same,solubility (mole fraction),"in 2-methoxyethanol, 312.1 K",0.0884
same,solubility (mole fraction),"in 2-methoxyethanol, 315.7 K",0.0986
same,solubility (mole fraction),"in 2-methoxyethanol, 319.6 K",0.112
same,solubility (mole fraction),"in 2-methoxyethanol, 324.2 K",0.129
same,solubility (mole fraction),"in diethylene glycol, 276.7 K",0.0167
same,solubility (mole fraction),"in diethylene glycol, 280.9 K",0.0188
same,solubility (mole fraction),"in diethylene glycol, 285.1 K",0.021
same,solubility (mole fraction),"in diethylene glycol, 289.4 K",0.0233
same,solubility (mole fraction),"in diethylene glycol, 295.5 K",0.0279
same,solubility (mole fraction),"in diethylene glycol, 299.6 K",0.0312
same,solubility (mole fraction),"in diethylene glycol, 303.8 K",0.0346
same,solubility (mole fraction),"in diethylene glycol, 307.9 K",0.0396
same,solubility (mole fraction),"in diethylene glycol, 312 K",0.0447
same,solubility (mole fraction),"in diethylene glycol, 316.5 K",0.0512
same,solubility (mole fraction),"in diethylene glycol, 320.8 K",0.0584
same,solubility (mole fraction),"in diethylene glycol, 325.3 K",0.0675
COc1cc([N+](=O)[O-])c(OC)cc1Cl,solubility (mole fraction),"in 1-methoxy-2-propanol, 282.2 K",0.00313
same,solubility (mole fraction),"in 1-methoxy-2-propanol, 287.1 K",0.00354
same,solubility (mole fraction),"in 1-methoxy-2-propanol, 291.6 K",0.00392
same,solubility (mole fraction),"in 1-methoxy-2-propanol, 296 K",0.00428
same,solubility (mole fraction),"in 1-methoxy-2-propanol, 300.3 K",0.00466
same,solubility (mole fraction),"in 1-methoxy-2-propanol, 304.6 K",0.00648
same,solubility (mole fraction),"in 1-methoxy-2-propanol, 309 K",0.00937
same,solubility (mole fraction),"in 1-methoxy-2-propanol, 313.1 K",0.0123
same,solubility (mole fraction),"in 1-methoxy-2-propanol, 317.2 K",0.0154
same,solubility (mole fraction),"in 1-methoxy-2-propanol, 321.3 K",0.0191
same,solubility (mole fraction),"in 1-methoxy-2-propanol, 325.7 K",0.0258
same,solubility (mole fraction),"in 2-ethoxyethanol, 276.7 K",0.00187
same,solubility (mole fraction),"in 2-ethoxyethanol, 280.8 K",0.00226
same,solubility (mole fraction),"in 2-ethoxyethanol, 284.9 K",0.00266
same,solubility (mole fraction),"in 2-ethoxyethanol, 289.1 K",0.00307
same,solubility (mole fraction),"in 2-ethoxyethanol, 293.2 K",0.00347
same,solubility (mole fraction),"in 2-ethoxyethanol, 297.3 K",0.00389
same,solubility (mole fraction),"in 2-ethoxyethanol, 301.4 K",0.00502
same,solubility (mole fraction),"in 2-ethoxyethanol, 305.5 K",0.00638
same,solubility (mole fraction),"in 2-ethoxyethanol, 309.6 K",0.00874
same,solubility (mole fraction),"in 2-ethoxyethanol, 314 K",0.0139
same,solubility (mole fraction),"in 2-ethoxyethanol, 320.6 K",0.0193
same,solubility (mole fraction),"in 2-ethoxyethanol, 327.1 K",0.0237
same,solubility (mole fraction),"in 2-methoxyethanol, 283.2 K",0.00622
same,solubility (mole fraction),"in 2-methoxyethanol, 290.9 K",0.00838
same,solubility (mole fraction),"in 2-methoxyethanol, 295.3 K",0.00953
same,solubility (mole fraction),"in 2-methoxyethanol, 299.4 K",0.0107
same,solubility (mole fraction),"in 2-methoxyethanol, 303.1 K",0.0119
same,solubility (mole fraction),"in 2-methoxyethanol, 306.8 K",0.0146
same,solubility (mole fraction),"in 2-methoxyethanol, 313 K",0.0177
same,solubility (mole fraction),"in 2-methoxyethanol, 317.9 K",0.0201
same,solubility (mole fraction),"in 2-methoxyethanol, 321.7 K",0.0226
same,solubility (mole fraction),"in 2-methoxyethanol, 325.8 K",0.0282
same,solubility (mole fraction),"in 2-methoxyethanol, 329.8 K",0.0335
same,solubility (mole fraction),"in diethylene glycol, 282.1 K",0.000239
same,solubility (mole fraction),"in diethylene glycol, 286.5 K",0.000275
same,solubility (mole fraction),"in diethylene glycol, 290.8 K",0.000321
same,solubility (mole fraction),"in diethylene glycol, 296.1 K",0.000364
same,solubility (mole fraction),"in diethylene glycol, 301.6 K",0.000402
same,solubility (mole fraction),"in diethylene glycol, 306.2 K",0.00048
same,solubility (mole fraction),"in diethylene glycol, 310.7 K",0.000573
same,solubility (mole fraction),"in diethylene glycol, 315.2 K",0.000717
same,solubility (mole fraction),"in diethylene glycol, 319.5 K",0.000876
same,solubility (mole fraction),"in diethylene glycol, 323.6 K",0.00109
same,solubility (mole fraction),"in diethylene glycol, 327.7 K",0.00136
